Data reported in patent US20220056043A1, “NITROGEN-CONTAINING FUSED CYCLIC COMPOUND, PREPARATION METHOD THEREFOR AND USE THEREOF” (SICHUAN KELUN-BIOTECH BIOPHARMACEUTICAL CO., LTD., priority 2019, published 2022).

What was measured:
[1] = molecular target: T1, hTLR8 (Homo sapiens, UniProt Q9NR97); test: Agonistic effect on hTLR8, HEK-Blue hTLR8 cells, alkaline phosphatase secretion; type: cell-based; settings: 16 hours
T1 construct: host or cells: HEK-Blue hTLR8 cells
T1 sequence (Q9NR97 27-1041): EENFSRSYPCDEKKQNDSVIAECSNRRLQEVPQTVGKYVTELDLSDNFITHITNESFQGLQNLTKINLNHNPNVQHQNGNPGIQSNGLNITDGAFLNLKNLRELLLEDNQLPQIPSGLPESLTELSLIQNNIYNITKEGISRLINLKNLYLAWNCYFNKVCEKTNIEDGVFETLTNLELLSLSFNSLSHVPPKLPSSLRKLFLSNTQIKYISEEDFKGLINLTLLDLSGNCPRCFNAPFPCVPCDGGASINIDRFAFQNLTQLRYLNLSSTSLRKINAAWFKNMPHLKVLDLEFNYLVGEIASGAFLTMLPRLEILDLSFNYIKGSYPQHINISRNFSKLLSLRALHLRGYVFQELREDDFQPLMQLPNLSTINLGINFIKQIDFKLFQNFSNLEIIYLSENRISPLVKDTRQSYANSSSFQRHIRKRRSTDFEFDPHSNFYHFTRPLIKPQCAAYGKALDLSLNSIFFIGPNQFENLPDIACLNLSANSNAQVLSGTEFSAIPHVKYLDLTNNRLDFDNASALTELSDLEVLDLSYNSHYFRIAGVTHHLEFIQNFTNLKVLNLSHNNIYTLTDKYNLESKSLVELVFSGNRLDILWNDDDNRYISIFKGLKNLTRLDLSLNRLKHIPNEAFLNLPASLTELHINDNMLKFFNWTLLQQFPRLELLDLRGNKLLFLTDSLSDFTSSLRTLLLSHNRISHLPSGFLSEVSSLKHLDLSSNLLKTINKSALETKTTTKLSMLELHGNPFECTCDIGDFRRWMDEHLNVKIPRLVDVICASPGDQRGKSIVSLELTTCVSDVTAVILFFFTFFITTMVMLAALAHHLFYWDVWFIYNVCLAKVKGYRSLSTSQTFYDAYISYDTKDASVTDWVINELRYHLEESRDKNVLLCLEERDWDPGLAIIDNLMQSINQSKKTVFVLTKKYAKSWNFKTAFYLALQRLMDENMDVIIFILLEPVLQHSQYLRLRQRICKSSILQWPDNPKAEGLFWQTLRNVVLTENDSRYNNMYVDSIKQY
Procedure: Experimental Example 4: Agonistic Effect of the Compound of the Invention on hTLR8
In this test, the secretion of alkaline phosphatase in HEK-Blue cells was measured to test the activating effect of the compound of the invention on TLR8 signaling pathway, so as to evaluate the specificity of the agonistic effect of the compound on NLRP3 pathway.
Reagents: DMEM (High glucose); FBS (fetal bovine serum) (Gibco); QUANTI-Blue/InvivoGen/rep-qb2
Cells: HEK-Blue™ hTLR8 cells (human TLR 8 cells) (InvivoGen) Experimental Procedures:
1) The HEK-Blue™ hTLR8 cells in a logarithmic growth phase were trypsinized and resuspended in the medium to a concentration of 2×10^6 cells/mL. 50 μL/well of the cell suspension was added to a 96-well plate. An appropriate amount of 10 mM DMSO solution of the compound to be tested was taken and diluted to a concentration of 2× test concentration with the medium. 50 μL/well was added to the cells in the 96-well plate. The plate was incubated in an incubator at 37° C. and 5% CO2 for 16 hours. The medium was DMEM (High glucose) containing 10% FBS. 2) After the cell incubation, 10 μL of cell culture supernatant was transferred to a 96-well plate. 90 μL/well of QUANTI-Blue detection solution was added, and the mixture was incubated at 37° C. for 3 hours. OD620 was read using a microplate reader.
3) The EC50 of the effect of the tested compound to stimulate hTLR8 was fitted by the GraphPad software log(agonist) vs. response—Variable slope four-parameter method.

[2] = molecular target: T2, hNLRP3 inflammasome (Homo sapiens, UniProt Q96P20); test: Agonistic effect on the expression of IL-1β in THP-1 cells after PMA-induced differentiation (HTRF); type: cell-based; settings: IL-1β level, PMA-differentiated THP-1 cells, 6 hours
T2 construct: endogenous in cells; host or cells: THP-1 cells, PMA-differentiated
Description: Experimental Example 1: Agonistic Effect of the Compound of the Invention on the Expression of IL-1β in THP-1 Cells after PMA-Induced Differentiation
In this test, a HTRF (homogeneous time-resolved fluorescence) detection method was used to test the effect of the compound of the invention on the level of downstream cytokine IL-1β of NLRP3 to evaluate the agonistic effect of the compound on hNLRP3 inflammasome or hNLRP3 inflammasome pathway at a cellular level.
Reagent: RPMI 1640 (Hyclone); heat-inactivated FBS (fetal bovine serum) (Gibco); PMA (phorbol myristal acetate) (Beyotime)
Kit: IL-1β assay kit (CISIO)
1) THP-1 cells in a logarithmic growth phase were seeded in a T75 culture flask at a density of 5×10^5 cells/well, and cultured in a cell incubator at 37° C., 5% CO2 for 24 hours, and then 1 μM PMA was used to induce THP-1 suspension cells to become adherent macrophages. The medium was RPMI 1640 containing 10% heat-inactivated FBS and 0.05 mM β-mercaptoethanol.
2) The cells were induced and cultured for 24 hours. Then the adherent cells were trypsinized and centrifuged at 1000 rpm for 5 min. The supernatant was removed, and the cells were resuspended to a density of 2×10^6 cells/mL in RPMI 1640 medium containing 2% heat-inactivated FBS. 50 μL/well of cell resuspension was taken and spread on a 96-well plate such that the number of cells in each well was 1×10^5.
3) An appropriate amount of 10 mM DMSO solution of the compound to be tested was taken and diluted to a concentration of 2× test concentration with RPMI 1640 medium containing 2% heat-inactivated FBS. 50 μL/well of the dilution was added to the cells in the 96-well plate, and mixed well. The plate was placed in a cell incubator at 37° C., 5% CO2 for 6 hours. The supernatant was collected, and the level of IL-1β was measured in accordance with the instructions of the IL-1β detection kit.
4) EC50 was fitted by the GraphPad software log(agonist) vs. response—Variable slope four-parameter method.

T2 sequence (Q96P20 whole entry): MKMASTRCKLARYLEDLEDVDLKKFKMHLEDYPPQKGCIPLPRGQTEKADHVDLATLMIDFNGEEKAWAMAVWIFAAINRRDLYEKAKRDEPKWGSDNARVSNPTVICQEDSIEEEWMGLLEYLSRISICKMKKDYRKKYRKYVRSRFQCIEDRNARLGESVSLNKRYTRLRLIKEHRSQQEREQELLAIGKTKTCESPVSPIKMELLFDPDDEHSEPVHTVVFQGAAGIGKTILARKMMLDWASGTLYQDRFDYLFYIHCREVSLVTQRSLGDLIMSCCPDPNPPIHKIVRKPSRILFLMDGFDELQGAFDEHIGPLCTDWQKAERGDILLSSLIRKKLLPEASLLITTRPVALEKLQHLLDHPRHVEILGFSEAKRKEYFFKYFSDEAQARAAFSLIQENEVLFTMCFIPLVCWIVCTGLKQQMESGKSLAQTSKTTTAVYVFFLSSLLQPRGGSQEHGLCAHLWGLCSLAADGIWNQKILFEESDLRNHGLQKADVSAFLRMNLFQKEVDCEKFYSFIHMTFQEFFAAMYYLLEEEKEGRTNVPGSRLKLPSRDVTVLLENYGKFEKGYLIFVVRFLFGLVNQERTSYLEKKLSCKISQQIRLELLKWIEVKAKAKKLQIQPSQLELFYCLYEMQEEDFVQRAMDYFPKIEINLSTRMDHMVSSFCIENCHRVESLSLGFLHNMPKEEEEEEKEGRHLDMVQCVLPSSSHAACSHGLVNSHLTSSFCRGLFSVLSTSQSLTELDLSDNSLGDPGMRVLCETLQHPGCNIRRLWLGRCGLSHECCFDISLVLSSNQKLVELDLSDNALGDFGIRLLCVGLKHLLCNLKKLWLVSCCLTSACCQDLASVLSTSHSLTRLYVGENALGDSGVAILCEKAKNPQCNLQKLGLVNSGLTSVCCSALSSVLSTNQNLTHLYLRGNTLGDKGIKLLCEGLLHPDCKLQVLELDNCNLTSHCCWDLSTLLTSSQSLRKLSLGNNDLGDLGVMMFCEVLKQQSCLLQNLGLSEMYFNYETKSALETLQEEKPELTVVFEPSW

Row | EC50 [1] [nM] | EC50 [2] [µM] | SMILES
1 | > 100000 | 1.12 | CC(=O)N1CCC(Nc2cc(N)nc3cc(-c4ccn[nH]4)sc23)CC1 [Compound 92, 1-(4-((5-amino-2-(1H-pyrazol-5-yl)thieno[3,2-b]pyridin-7-yl)amino)piperidin-1-yl)ethanone]
2 | > 100000 | 0.18 | Nc1cc(NCCCO)c2sc(-c3ccccc3)cc2n1 [Compound 93, 3-((5-amino-2-phenylthieno[3,2-b]pyridin-7-yl)amino)-1-propanol]
3 | > 100000 | 0.09 | CC[C@H](CO)Nc1cc(N)nc2cc(-c3ccn[nH]3)sc12 [Compound 95, (R)-2-((5-amino-2-(1H-pyrazol-5-yl)thieno[3,2-b]pyridin-7-yl)amino)butanol]
4 | > 100000 | 0.07 | Nc1cc(N[C@@H]2CCC[C@@H]2O)c2sc(-c3ccn[nH]3)cc2n1 [Compound 96, (1S,2R)-2-((5-amino-2-(1H-pyrazol-5-yl)thieno[3,2-b]pyridin-7-yl)amino)cyclopentanol]
5 | > 100000 | 0.03 | Nc1cc(NCC(F)(F)c2ccccn2)c2sc(-c3ccn[nH]3)cc2n1 [Compound 97, N^7-(2,2-difluoro-2-(pyridin-2-yl)ethyl)-2-(1H-pyrazol-5-yl)thieno[3,2-b]pyridine-5,7-diamine]
6 | > 100000 | 0.35 | CC1(O)CCN(CCNc2cc(N)nc3cc(-c4ccn[nH]4)sc23)CC1 [Compound 98, 1-(2-((5-amino-2-(1H-pyrazol-5-yl)thieno[3,2-b]pyridin-7-yl)amino)ethyl)-4-methylpiperidine-4-ol]
7 | > 100000 | 0.54 | CC1(O)CCN(CCCNc2cc(N)nc3cc(-c4ccn[nH]4)sc23)CC1 [Compound 99, 1-(3-((5-amino-2-(1H-pyrazol-5-yl)thieno[3,2-b]pyridin-7-yl)amino)propyl)-4-methylpiperidine-4-ol]
8 | > 100000 | 0.03 | COCCNc1cc(N)nc2cc(-c3ccn[nH]3)sc12 [Compound 100, N^7-(2-methoxyethyl)-2-(1H-pyrazol-5-yl)thieno[3,2-b]pyridine-5,7-diamine]
9 | > 100000 | 0.03 | CO[C@H](C)CNc1cc(N)nc2cc(-c3ccn[nH]3)sc12 [Compound 101, (R)—N^7-(2-methoxypropyl)-2-(1H-pyrazol-5-yl)thieno[3,2-b]pyridine-5,7-diamine]
10 | > 100000 | 0.01 | Nc1cc(NCC2CC2)c2sc(-c3ccn[nH]3)cc2n1 [Compound 102, N^7-(cyclopropylmethyl)-2-(1H-pyrazol-5-yl)thieno[3,2-b]pyridine-5,7-diamine]
11 | > 100000 | 0.17 | CN1CCC[C@@H](Nc2cc(N)nc3cc(-c4ccn[nH]4)sc23)C1 [Compound 104, (R)—N^7-(1-methylpiperidin-3-yl)-2-(1H-pyrazol-5-yl)thieno[3,2-b]pyridine-5,7-diamine]
12 | > 100000 | 0.03 | Nc1cc(NC[C@@H]2CCCO2)c2sc(-c3ccn[nH]3)cc2n1 [Compound 105, (S)-2-(1H-pyrazol-5-yl)-N^7-((tetrahydrofuran-2-yl)methyl)thieno[3,2-b]pyridine-5,7-diamine]
13 | > 100000 | 0.04 | Cn1cc(CNc2cc(N)nc3cc(-c4ccn[nH]4)sc23)cn1 [Compound 106, N^7-(1-methyl-1H-pyrazol-4-yl)methyl-2-(1H-pyrazol-5-yl)thieno[3,2-b]pyridine-5,7-diamine]
14 | > 100000 | 0.34 | C[C@@H](CO)Nc1cc(N)nc2cc(-c3ccn[nH]3)sc12 [Compound 108, (S)-2-((5-amino-2-(1H-pyrazol-5-yl)thieno[3,2-b]pyridin-7-yl)amino)propanol]
15 | > 100000 | 4.48 | Cn1cc(-c2cc3nc(N)cc(NCCCO)c3s2)cn1 [Compound 109, 3-((5-amino-2-(1-methyl-1H-pyrazol-4-yl)thieno[3,2-b]pyridin-7-yl)amino)-1-propanol]
